Measured values taken from patent US20070026090A1, “Treatment and prevention of inflammatory disease and mitochondrial dysfunction with high dose selenium” (priority 2003, published 2007).

Experiments:
NF-κB = NF-κB binding in vitro, selenite added to nuclear extract (EMSA); parameters: species or system murine; conditions: 5 μM added to nuclear extract 5 minutes before (FIG. 12B)
Protocol: Electromobility shift assay (EMSA)—Gel shift assays were performed according to the gel shift assay protocol from Promega Corp. (San Luis Obispo, Calif.). […] For each reaction, 2 μg of nuclear extract were incubated with 2 μl of 5× binding buffer for 5 min., 1 μl of the ^32P-labeled oligonucleotide was added at room temperature for 20 min., the samples were prepared by adding 1 μl of dye free loading buffer, and separated using 6% non-denaturing acrylamide gel electrophoresis. […]

cytochrome c mRNA = assay: Cytochrome c mRNA in colon tissue (RT-PCR); type: in vivo, rat; conditions: 24 h after TNBS; supplemented (FIG. 7A lane 4)
Sp1 = Sp1 binding activity of nuclear extracts of treated macrophages (EMSA); type: cell-based, murine
Protocol: Cell culture: Murine J774.2 macrophages (kindly provided by Prof. Dov Zipori from the Weizmann Institute of Science) were grown in RPMI medium supplemented with 10% (w/v) fetal calf serum, penicillin (100 U/ml), streptomycin (100 μg/ml) and 1× glutamine at 37° C. in a humidified atmosphere consisting of 95% air and 5% CO2. Experiments were performed on cells at 60% confluence.
Nuclear extracts: Nuclear Extracts were prepared using a slight modification of the method of Dignam et al (23). Treated cells were washed with cold PBS, scraped and centrifuged. Hypotonic buffer (1 ml, 20 mM HEPES pH 7.0, 10 mM KCl, 1 mM mGCl2, 0.5 mM DTT, 0.1% Triton X-100, 20% glycerol, 2 mM PMSP, 1 mg/ml Aprotonin and Leupeptin) was added to the cell pellets, the pellets were disrupted by pipetting, and centrifuged 3000 RPM for 5 min. The pellets were re-suspended in 100 μl cold extraction buffer (20 mM HEPES pH 7.0, 10 mM KCl, 1 mM mGCl2, 0.5 mM DTT, 0.1% Triton X-100, 20% glycerol, 2 mM PMSF, 1 mg/ml Aprotonin and Leupeptin, 420 mM NaCl). The samples were rotated for 20 min at 4° C., centrifuged 15,000 RPM for 10 min, and supernatants collected. Protein content was measured using Bradford reagent. Samples were stored frozen at minus 70° C.
Electromobility shift assay (EMSA)—Gel shift assays were performed according to the gel shift assay protocol from Promega Corp. (San Luis Obispo, Calif.). A 22-mer double-stranded NF-κB consensus oligonucleotide 5′-[…]-3′ (SEQ ID NO:3), and Sp1 consensus oligonucleotide 5′-[…]-3(SEQ ID NO:4), were labeled with 32P. For each reaction, 2 μg of nuclear extract were incubated with 2 μl of 5× binding buffer for 5 min., 1 μl of the ^32P-labeled oligonucleotide was added at room temperature for 20 min., the samples were prepared by adding 1 μl of dye free loading buffer, and separated using 6% non-denaturing acrylamide gel electrophoresis. The gel was dried and exposed to a phosphoimaging screen for 18 hours and then visualized with a phosphoimager. For specificity, 1 μl of unlabeled consensus oligonucleotide was used to compete with the labeled probe.

NRF-1 = assay: NRF1 mRNA in colon tissue (RT-PCR); type: in vivo, rat
Protocol: Mitochondrial (mt) TFA, NRF1, and cytochrome c mRNA analysis: Total RNA was extracted from 50 to 100 mg tissue at a time using 1 ml of Tri Reagent® (Sigma-Aldrich Corp., St. Louis, Mo.) according to manufacturer's instructions. First strand cDNA synthesis was carried out using reverse-iTTM First Strand Synthesis from Advanced Biotechnologies (ABgene®, ABgene, Epsom, U.K.) was used according to the manufacturer's instructions. Target sequences were amplified in the PCR reaction as follows: each tube contained 37 ng of cDNA from cytochrome c, GAPDH, or 18S, 3 μl of specific primers, 12.5 μl of ready Mix and 6.5 μl water DEPC (for a total 25 μl in each tube).
The PCR for cytochrome c, NRF1 and mtTFA was run at 95° C. for 5 min, 94° C. for 30 sec, 56° C. for 2 min, 72° C. for 1 min, back to stage 2 for 22, 26, 24 cycles, respectively, then 72° C. for 10 min, and 4° C. The products of the PCR were separated on a 1% agarose gel in TAE buffer with ethidium bromide. The electrophoresis took place in a BioRad device in 1×TAE buffer at 95 V for about 50 min (maximum mA). The size of the cDNA was determined by a 100-bp marker.
Rat NFR-1: (Antisense) 5′-[…]-3′ (SEQ ID No. 13) corresponding to nucleotides 450 to 469 of rat NFR-1 (GenBank Accession No. XM231566).
(Sense): 5′-[…] -3′ (SEQ ID No. 14). The expected PCR product was 461 bp, the actual 461 bp.

cytochrome c = assay: Cytochrome c protein in colon tissue (Western blot); type: in vivo, rat
Excerpt: Western blotting—analysis of Cytochrome c: Colon tissue samples were boiled and kept in sample buffer (Sigma-Aldrich Corp., St Louis, Mo.) immediately following isolation. For electrophoretic separation and immunodetection, the samples were reboiled, and subjected to SDS-PAGE followed by Western blot analysis. Briefly, separated proteins were transferred electrophoretically from the gel to a nitrocellulose membrane (Amersham International plc, Buckinghamshire, England). The membrane was blocked in TBS (0.15 M NaCl/10 mM Tris/HCl [pH7.4]) containing 5% (v/v) skim milk (Blotto), then incubated overnight with the primary antibody at 4° C. (diluted 1/1000 in Blotto). Following six washes in TBST (TBS containing 0.05% v/v Tween 20), the membrane was incubated for 2 hours at room temperature with the secondary antibody (diluted 1/1000 in Blotto). Immunoreactive bands were detected with ECL western blotting detection reagents and developed on film (Shilo et al., 2003). Separated proteins were transferred electrophoretically from the gel to a nitrocellulose membrane (Amersham International plc, Buckinghamshire, England). […] Immunoreactive bands were visualized by detection with ECL Western blotting detection reagents (ECL, Amersham Biosciences, Uppsala, Sweden) followed by exposure of film and quantitation by densitometry (Shilo et al., 2003).

Compound: [Se] [selenium]
- NF-κB binding in vitro (NF-κB): directly inhibited
- effect of TNBS-induced colitis on cytochrome c mRNA levels (cytochrome c mRNA): completely prevented
- lowest concentration with dramatic effect on Sp-1 binding, activated macrophages (Sp1; 72 hours, then 6 hours LPS + INFγ, range 0.5-5 μM (FIG. 13A lower panel)): 5 µM
- lowest concentration with dramatic effect on Sp-1 binding, resting macrophages (Sp1; 72 hours, unactivated (FIG. 13A upper panel)): 5 µM
- binding of Sp-1, activated macrophages (Sp1; concentration-dependent (FIG. 13A)): dramatically reduced
- NRF-1 levels in colon tissue, colitis-induced rats (NRF-1; 24 h after TNBS, supplemented (FIG. 17 lane 4), unsupplemented nearly 50% reduction): surpass that of healthy control rats
- NRF-1 levels in colon tissue, healthy rats (NRF-1; healthy supplemented rats (FIG. 17 lane 2)): significantly enhances
- inflammation-associated alterations of cytochrome c protein (cytochrome c; 24 h after TNBS, supplemented (FIG. 7B lane 4 vs lane 3)): completely prevented
- characteristics of cytochrome c protein, healthy uninduced rats (cytochrome c; FIG. 7B lane 1 vs lane 2): no effect
